As usually defined, the IC50 is the midpoint of a concentration-inhibition curve. A word on the LD50: it is the dose at which mortality reaches 50%. Usually MIC stands for the least concentration at which growth counts as inhibited.

This note sets out measurements from patent US5137920A, “Method of treating fungal infections” (Hoffmann-La Roche Inc., priority 1989, dated 1992).

Data set [1] addresses T1, 2,3-epoxysqualene-lanosterol cyclase (Candida albicans, UniProt Q04782).
T1 construct: there was obtained a cell-free extract (CFE) as the supernatant; endogenous in cells; host or cells: Candida albicans culture (cell-free extract, 10000 g supernatant of ruptured protoplasts)
Nature of the data set: Inhibition of 2,3-epoxysqualene-lanosterol cyclase from Candida albicans (14C-squalene epoxide, cell-free extract). The data set is classed as biochemical.

The nature of data set [2]: Acute toxicity in the case of subcutaneous administration to mice. The note with it: mouse, in vivo, sc. The procedure:
The IC50 values were determined graphically and are given in μg of test substance per ml. Table I contains IC50 values determined in the above test for representative members of the class of compound defined by formula I as well as data concerning the acute toxicity in the case of subcutaneous administration to mice (LD50 in mg/kg).

In a further data set the test system is Candida albicans. The experiment in a line: Agar dilution method, application alone and in combination with ketoconazole (synergistic activity). The class given is cell-based. The conditions noted are these: for FIC (fractional inhibitory concentration): Compound 1 + ketoconazole, synergistic if <0.5; for MIC: Candida albicans, 48 h, casitone agar, 37° C., 2 days. (In general: Agar dilution tests growth on a series of plates holding different concentrations.)

The mark [3] stands for this setting: C. albicans cell-free extract, pH 6.9, 30°, 1 hour, read-out: IC50 (converted).

SMILES strings stand for the structures. Counter-ions that a name gives are not always drawn. Like-named read-outs stand apart in the source and are kept apart here.

T1 sequence (Q04782 whole entry): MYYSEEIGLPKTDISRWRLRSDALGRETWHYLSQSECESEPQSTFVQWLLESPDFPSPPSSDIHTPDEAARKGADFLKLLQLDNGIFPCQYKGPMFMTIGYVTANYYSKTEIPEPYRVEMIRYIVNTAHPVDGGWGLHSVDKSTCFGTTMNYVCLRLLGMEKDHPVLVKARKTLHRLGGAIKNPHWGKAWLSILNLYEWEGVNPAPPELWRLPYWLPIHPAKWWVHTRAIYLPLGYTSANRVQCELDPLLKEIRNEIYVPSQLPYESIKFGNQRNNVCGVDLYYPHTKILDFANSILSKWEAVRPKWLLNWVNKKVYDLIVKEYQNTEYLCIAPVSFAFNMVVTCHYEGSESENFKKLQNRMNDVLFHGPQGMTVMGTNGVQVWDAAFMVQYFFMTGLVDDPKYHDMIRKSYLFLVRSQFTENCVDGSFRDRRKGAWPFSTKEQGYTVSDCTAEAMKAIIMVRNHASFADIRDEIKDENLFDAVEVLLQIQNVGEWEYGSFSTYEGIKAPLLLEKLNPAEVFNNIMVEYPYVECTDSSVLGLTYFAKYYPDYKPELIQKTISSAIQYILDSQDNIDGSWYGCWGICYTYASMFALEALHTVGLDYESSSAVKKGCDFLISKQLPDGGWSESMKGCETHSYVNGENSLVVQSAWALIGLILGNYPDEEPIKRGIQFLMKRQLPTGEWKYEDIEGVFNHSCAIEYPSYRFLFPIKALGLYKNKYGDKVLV

`CN(C)CCCCCCCc1ccc(C(=O)c2ccccc2)cc1` [Compound 1, 4-[7-(dimethylamino)heptyl]benzophenone] gave a concentration for half-maximal inhibition (IC50) in data set [1] of 526 nM. The LD50 in data set [2] was 312 to 625 mg/kg. Also, the “FIC (fractional inhibitory concentration)” value in the data set on Candida albicans (C. albicans B4) was found to be 0.06; in the data set on Candida albicans (C. albicans B5), 0.53; in the data set with Candida albicans (C. albicans H12) it was 0.19; in the data set with Candida albicans (C. albicans H29) it was 0.19; in the data set on Candida albicans (C. albicans H42) it was 0.005. Moreover, the MIC in combination with Candida albicans (C. albicans B4, Compound 1 in combination with ketoconazole) is 1.2 µg/mL; in the data set with Candida albicans (C. albicans B5, Compound 1 in combination with ketoconazole), 1.2 µg/mL; in the data set with Candida albicans (C. albicans H12, Compound 1 in combination with ketoconazole), 2.5 µg/mL; with Candida albicans (C. albicans H29, Compound 1 in combination with ketoconazole), 1.2 µg/mL; in the data set with Candida albicans (C. albicans H42, Compound 1 in combination with ketoconazole) it was 1.2 µg/mL. Besides, the MIC stood at 20 µg/mL in the data set with Candida albicans (C. albicans B4, Compound 1 alone); 20 µg/mL in the data set with Candida albicans (C. albicans B5, Compound 1 alone); 20 µg/mL in the data set with Candida albicans (C. albicans H12, Compound 1 alone); 10 µg/mL with Candida albicans (C. albicans H29, Compound 1 alone); 20 µg/mL with Candida albicans (C. albicans H42, Compound 1 alone). Besides, in the data set on Candida albicans (in combination with ketoconazole, C. albicans), the synergistic activity result is “confirms the synergistic activity”.

Turning to `CN(C)CCCCCCCc1ccc(C(=O)Cc2ccccc2)cc1` [Compound 2, 4'-[7-(dimethylamino)heptyl]-2-phenylacetophenone], the IC50 in data set [1] (setting [3]) was 1420 nM.

For `CN(C)CCCCCCCc1ccc(C(=O)c2ccc(F)cc2)cc1` [Compound 3, 4'-fluoro-4-[7-(dimethylamino)heptyl]benzophenone], the IC50 in data set [1] (setting [3]) is 1230 nM.

As to `CN(C)CCCCCCCc1ccc(C(=O)c2ccc(C(F)(F)F)cc2)cc1` [Compound 4, 4-[7-(dimethylamino)heptyl]-4'-(trifluoromethyl)benzophenone], the IC50 in data set [1] (setting [3]) was 3450 nM.

Turning to `CN(C)CCCCCCCc1ccc(C(=O)c2ccc(F)cc2F)cc1` [Compound 5, 2,4-difluoro-4'-[7-(dimethylamino)heptyl]benzophenone], in data set [1] (setting [3]), the IC50 was 1530 nM.

For the molecule `CN(C)CCCc1ccc(C(=O)/C=C/c2ccc(Cl)cc2)cc1` [Compound 6, (E)-3-(4-chlorophenyl)-4'-[3-(dimethylamino)propyl]acrylophenone], the IC50 in data set [1] (setting [3]) was 3660 nM.

On to `CN(C)CCCc1ccc(C(=O)CCc2ccc(Cl)cc2)cc1` [Compound 7, 3-(4-chlorophenyl)-4'-[3-(dimethylamino)propyl]propiophenone hydrochloride], for which the IC50 in data set [1] (setting [3]) is 1090 nM.

Consider `CN(C)CCCc1ccc(C(=O)CCc2ccc(F)cc2)cc1` [Compound 8, 3-(4-fluorophenyl)-4'-[3-(dimethylamino)propyl]propiophenone], for which the IC50 in data set [1] (setting [3]) was 1750 nM.

With `Cc1ccccc1CCC(=O)c1ccc(CCCN(C)C)cc1` [Compound 9, 3-(2-methylphenyl)-4'-[3-(dimethylamino)propyl]propiophenone], the IC50 in data set [1] (setting [3]) was 355 nM.

On to `CN(C)CCCc1ccc(C(=O)CCc2cccc(Cl)c2)cc1` [Compound 10, 3-(3-chlorophenyl)-4'-[3-(dimethylamino)propyl]propiophenone], for which, in data set [1] (setting [3]), the half-inhibitory concentration (IC50) is 1330 nM.

As for `CN(C)CCCc1ccc(C(=O)CCc2ccc([N+](=O)[O-])cc2)cc1` [Compound 11], the half-inhibitory concentration (IC50) in data set [1] (setting [3]) is 823 nM.

As for `O=C(/C=C/c1ccccc1)c1ccc(CCCN2CCCC2)cc1` [Compound 12, (E)-3-phenyl-4'-[3-(1-pyrrolidinyl)propyl]acrylophenone], the 50% inhibitory concentration (IC50) in data set [1] (setting [3]) was 783 nM.

With `O=C(CCc1ccccc1)c1ccc(CCCN2CCCC2)cc1` [Compound 13, 3-phenyl-4'-[3-(1-pyrrolidinyl)propyl]propiophenone], in data set [1] (setting [3]), the half-inhibitory concentration (IC50) is 1240 nM.

For `CN(C)CCCc1ccc(C(=O)c2ccccc2)cc1` [Compound 14], the IC50 in data set [1] (setting [3]) is 18700 nM.

With `CN(C)CCCCCCCCc1ccc(C(=O)c2ccccc2)cc1` [Compound 15], in data set [1] (setting [3]), the IC50 was 1210 nM.

`CN(C)CCCCCCCCc1ccc(C(=O)c2ccccc2)cc1` [Compound 16, 4-[8-(Dimethylamino)octyl]benzophenone]: the IC50 in data set [1] (setting [3]) was 415 nM.

On to `CN(C)CCCCCCCc1ccc(C(=O)c2ccc(Cl)cc2)cc1` [Compound 17, 4-chloro-4'-[7-(dimethylamino)heptyl]benzophenone], for which the concentration for half-maximal inhibition (IC50) in data set [1] (setting [3]) is 1370 nM.

Turning to `CN(C)CCCCCCCc1ccc(C(=O)c2ccc(Br)cc2)cc1` [Compound 18, 4-Bromo-4'-[7-(dimethylamino)heptyl]benzophenone], in data set [1] (setting [3]), the IC50 was 2140 nM.

Regarding `CN(C)CCCCCCCc1ccc(C(=O)c2ccc(Cl)cc2Cl)cc1` [Compound 19, 2,4-Dichloro-4'-[7-(dimethylamino)heptyl]benzophenone], the IC50 in data set [1] (setting [3]) was 1910 nM.

For `CN(C)CCCCCCCc1ccc(C(=O)c2ccc(C#N)cc2)cc1` [Compound 20], in data set [1] (setting [3]), the half-maximal inhibitory concentration (IC50) was 746 nM.

For `C=CCN(C)CCCCCCCc1ccc(C(=O)c2ccccc2)cc1` [Compound 21, 4-[7-(Allylmethylamino)heptyl]benzophenone], the IC50 in data set [1] is 143 nM.

Consider `C=CCN(C)CCCCCCCc1ccc(C(=O)c2ccc(Br)cc2)cc1` [Compound 22, 4-[7-(Allylmethylamino)heptyl]-4'-bromobenzophenone], for which, in data set [1], the IC50 was 443 nM.

With `C=CCN(C)CCCCCCCc1ccc(C(=O)c2ccc(C#N)cc2)cc1` [Compound 23, 4-[4'-[7-(Allylmethylamino)heptyl]benzoyl]benzonitrile], the IC50 in data set [1] is 160 nM.

In data set [1], `C=CCN(C)CCCCCCc1ccc(C(=O)c2ccc(Br)cc2)cc1` [Compound 24, 4-[6-(Allylmethylamino)hexyl]-4'-bromobenzophenone] had an IC50 of 229 nM. For the same molecule, the LD50 in data set [2] fell in the range of 312 to 625 mg/kg.

As for `CN(C)CCCCCCc1ccc(C(=O)c2ccc(Br)cc2)cc1` [Compound 25, 4-Bromo-4'-[6-(dimethylamino)hexyl]benzophenone hydrochloride], in data set [1] (setting [3]), the IC50 was 2170 nM.

Consider `CN(C)CCCCCCc1ccc(C(=O)c2cccc(Br)c2)cc1` [Compound 26, 3-Bromo-4'-[6-(dimethylamino)hexyl]benzophenone], for which the IC50 in data set [1] (setting [3]) was 1080 nM.

On to `Cc1ccccc1C(=O)c1ccc(CCCCCCN(C)C)cc1` [Compound 27, 4-[6-(Dimethylamino)hexyl]-2'-methylbenzophenone], for which the IC50 in data set [1] (setting [3]) is 495 nM.

With `CN(C)CCCCCCc1ccc(C(=O)c2ccc([N+](=O)[O-])cc2)cc1` [Compound 28, 4-[6-(Dimethylamino)hexyl]-4'-nitrobenzophenone], the concentration for half-maximal inhibition (IC50) in data set [1] (setting [3]) was 592 nM.

For `CN(C)CCCCCCc1ccc(C(=O)c2ccccc2Cl)cc1` [Compound 29, 2-Chloro-4'-[6-(dimethylamino)hexyl]benzophenone], in data set [1] (setting [3]), the IC50 was 320 nM.

As for `CC(=O)N1CCN(c2ccc(OCC3COC(Cn4ccnc4)(c4ccc(Cl)cc4Cl)O3)cc2)CC1` (stereo not drawn) [Ketoconazole, reference compound], the MIC in combination in the data set with Candida albicans (C. albicans B4, Ketoconazole in combination with Compound 1) was found to be 0.15 µg/mL; in the data set on Candida albicans (C. albicans B5, Ketoconazole in combination with Compound 1), 0.075 µg/mL; in the data set with Candida albicans (C. albicans H12, Ketoconazole in combination with Compound 1), 0.3 µg/mL; with Candida albicans (C. albicans H29, Ketoconazole in combination with Compound 1), 0.075 µg/mL; in the data set on Candida albicans (C. albicans H42, Ketoconazole in combination with Compound 1), 0.15 µg/mL. Besides, the MIC in the data set with Candida albicans (C. albicans B4, Ketoconazole alone) came to 2.5 µg/mL; in the data set with Candida albicans (C. albicans B5, Ketoconazole alone), 0.15 µg/mL; with Candida albicans (C. albicans H12, Ketoconazole alone), 5 µg/mL; in the data set on Candida albicans (C. albicans H29, Ketoconazole alone) it was 1.29 µg/mL; with Candida albicans (C. albicans H42, Ketoconazole alone), 5 µg/mL.
